From PubChem BioAssay AID2060492 (Molecular Pharmacology Branch, DTP, NCI, 2025)
pIC50: −log10 of the molar value.

System: 695427-040-R-J1-PDC complex spheroids, viability percent T/C
Assay: Anticancer human tumor 695427-040-R-J1-PDC patient-derived colon adenocarcinoma cell line growth inhibition [GQUAD]
Conditions: for pIC50: curve of first compound; for viability, T/C: stronger effect = lower value
Summary of the method: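 Multi-cell-type spheroids of tumor cells with HUVEC and mesenchymal stem cells, treated with drug combinations. Concentrations descend in half-log steps from near clinical Cmax, or from 10 microM where Cmax is unknown; viability read-out.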

[1] = second compound 0.0316 µM, first compound 0.0316 µM
[2] = second compound 0.0316 µM, first compound 0.1 µM
[3] = second compound 0.0316 µM, first compound 0.316 µM
[4] = second compound 0.0316 µM, first compound 1 µM
[5] = second compound 0.0316 µM, first compound 3.16 µM
[6] = second compound 0.0316 µM, first compound 10 µM
[7] = second compound 0.1 µM, first compound 0.0316 µM
[8] = second compound 0.1 µM, first compound 0.1 µM
[9] = second compound 0.1 µM, first compound 0.316 µM
[10] = second compound 0.1 µM, first compound 1 µM
[11] = second compound 0.1 µM, first compound 3.16 µM
[12] = second compound 0.1 µM, first compound 10 µM
[13] = second compound 0.316 µM, first compound 0.0316 µM
[14] = second compound 0.316 µM, first compound 0.1 µM
[15] = second compound 0.316 µM, first compound 0.316 µM
[16] = second compound 0.316 µM, first compound 1 µM
[17] = second compound 0.316 µM, first compound 3.16 µM
[18] = second compound 0.316 µM, first compound 10 µM
[19] = second compound 1 µM, first compound 0.0316 µM
[20] = second compound 1 µM, first compound 0.1 µM
[21] = second compound 1 µM, first compound 0.316 µM
[22] = second compound 1 µM, first compound 1 µM
[23] = second compound 1 µM, first compound 3.16 µM
[24] = second compound 1 µM, first compound 10 µM
[25] = second compound 3.16 µM, first compound 0.0316 µM
[26] = second compound 3.16 µM, first compound 0.1 µM
[27] = second compound 3.16 µM, first compound 0.316 µM
[28] = second compound 3.16 µM, first compound 1 µM
[29] = second compound 3.16 µM, first compound 3.16 µM
[30] = second compound 3.16 µM, first compound 10 µM
[31] = second compound 10 µM, first compound 0.0316 µM
[32] = second compound 10 µM, first compound 0.1 µM
[33] = second compound 10 µM, first compound 0.316 µM
[34] = second compound 10 µM, first compound 1 µM
[35] = second compound 10 µM, first compound 3.16 µM
[36] = second compound 10 µM, first compound 10 µM
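Further: spheroids exposed to compounds for seven days before readout.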

## CC(=O)O[C@H]1C(=O)[C@@]2(C)[C@H]([C@H](OC(=O)c3ccccc3)[C@]3(O)C[C@H](OC(=O)[C@H](O)[C@@H](NC(=O)c4ccccc4)c4ccccc4)C(C)=C1C3(C)C)[C@]1(OC(C)=O)CO[C@@H]1C[C@@H]2O + CN(C)c1ccc(Nc2c3ccc(NC(=O)CCN4CCCC4)cc3nc3cc(NC(=O)CCN4CCCC4)ccc23)cc1
Second compound 0.0316 µM
  pIC50: < 5.00
Second compound 0.1 µM
  pIC50: < 5.00
Second compound 0.316 µM
  pIC50: < 5.00
Second compound 1 µM
  pIC50: < 5.00
Second compound 3.16 µM
  pIC50: < 5.00
Second compound 10 µM
  pIC50: < 5.00
[1]
  viability, T/C: 98.5%
[2]
  viability, T/C: 90.7%
[3]
  viability, T/C: 90.4%
[4]
  viability, T/C: 85.6%
[5]
  viability, T/C: 84%
[6]
  viability, T/C: 73.2%
[7]
  viability, T/C: 98.5%
[8]
  viability, T/C: 87.8%
[9]
  viability, T/C: 89.3%
[10]
  viability, T/C: 79.8%
[11]
  viability, T/C: 79.5%
[12]
  viability, T/C: 68.7%
[13]
  viability, T/C: 106%
[14]
  viability, T/C: 96%
[15]
  viability, T/C: 85.5%
[16]
  viability, T/C: 84.5%
[17]
  viability, T/C: 82.6%
[18]
  viability, T/C: 70.1%
[19]
  viability, T/C: 89.7%
[20]
  viability, T/C: 88.4%
[21]
  viability, T/C: 89.8%
[22]
  viability, T/C: 85.5%
[23]
  viability, T/C: 76.3%
[24]
  viability, T/C: 69.8%
[25]
  viability, T/C: 92.8%
[26]
  viability, T/C: 96.7%
[27]
  viability, T/C: 88.7%
[28]
  viability, T/C: 84.3%
[29]
  viability, T/C: 77.4%
[30]
  viability, T/C: 66.3%
[31]
  viability, T/C: 86.9%
[32]
  viability, T/C: 84.8%
[33]
  viability, T/C: 84.5%
[34]
  viability, T/C: 75.8%
[35]
  viability, T/C: 71.2%
[36]
  viability, T/C: 61.9%

## CC[C@@]1(O)C(=O)OCc2c1cc1n(c2=O)Cc2cc3c(CN(C)C)c(O)ccc3nc2-1 + CN(C)c1ccc(Nc2c3ccc(NC(=O)CCN4CCCC4)cc3nc3cc(NC(=O)CCN4CCCC4)ccc23)cc1
Second compound 0.0316 µM
  pIC50: < 6.50
Second compound 0.1 µM
  pIC50: < 6.50
Second compound 0.316 µM
  pIC50: < 6.50
Second compound 1 µM
  pIC50: < 6.50
Second compound 3.16 µM
  pIC50: < 6.50
Second compound 10 µM
  pIC50: < 6.50
Second compound 0.0316 µM, first compound 0.000999 µM
  viability, T/C: 109%
Second compound 0.0316 µM, first compound 0.00316 µM
  viability, T/C: 95%
Second compound 0.0316 µM, first compound 0.00999 µM
  viability, T/C: 108%
[1]
  viability, T/C: 100%
Second compound 0.0316 µM, first compound 0.0999 µM
  viability, T/C: 104%
[3]
  viability, T/C: 91.6%
Second compound 0.1 µM, first compound 0.000999 µM
  viability, T/C: 117%
Second compound 0.1 µM, first compound 0.00316 µM
  viability, T/C: 101%
Second compound 0.1 µM, first compound 0.00999 µM
  viability, T/C: 96.8%
[7]
  viability, T/C: 101%
Second compound 0.1 µM, first compound 0.0999 µM
  viability, T/C: 98.9%
[9]
  viability, T/C: 85%
Second compound 0.316 µM, first compound 0.000999 µM
  viability, T/C: 97.6%
Second compound 0.316 µM, first compound 0.00316 µM
  viability, T/C: 104%
Second compound 0.316 µM, first compound 0.00999 µM
  viability, T/C: 100%
[13]
  viability, T/C: 111%
Second compound 0.316 µM, first compound 0.0999 µM
  viability, T/C: 100%
[15]
  viability, T/C: 95.8%
Second compound 1 µM, first compound 0.000999 µM
  viability, T/C: 101%
Second compound 1 µM, first compound 0.00316 µM
  viability, T/C: 95.2%
Second compound 1 µM, first compound 0.00999 µM
  viability, T/C: 96.1%
[19]
  viability, T/C: 99.9%
Second compound 1 µM, first compound 0.0999 µM
  viability, T/C: 97.8%
[21]
  viability, T/C: 93.7%
Second compound 3.16 µM, first compound 0.000999 µM
  viability, T/C: 99.2%
Second compound 3.16 µM, first compound 0.00316 µM
  viability, T/C: 100%
Second compound 3.16 µM, first compound 0.00999 µM
  viability, T/C: 96.2%
[25]
  viability, T/C: 103%
Second compound 3.16 µM, first compound 0.0999 µM
  viability, T/C: 110%
[27]
  viability, T/C: 82.1%
Second compound 10 µM, first compound 0.000999 µM
  viability, T/C: 94.3%
Second compound 10 µM, first compound 0.00316 µM
  viability, T/C: 84.8%
Second compound 10 µM, first compound 0.00999 µM
  viability, T/C: 92.2%
[31]
  viability, T/C: 88.3%
Second compound 10 µM, first compound 0.0999 µM
  viability, T/C: 91%
[33]
  viability, T/C: 88.6%

## COc1cc(C2c3cc4c(cc3C(OC3OC5COC(C)OC5C(O)C3O)C3COC(=O)C23)OCO4)cc(OC)c1O (stereo unspecified) + CN(C)c1ccc(Nc2c3ccc(NC(=O)CCN4CCCC4)cc3nc3cc(NC(=O)CCN4CCCC4)ccc23)cc1
Second compound 0.0316 µM
  pIC50: < 5.00
Second compound 0.1 µM
  pIC50: < 5.00
Second compound 0.316 µM
  pIC50: < 5.00
Second compound 1 µM
  pIC50: < 5.00
Second compound 3.16 µM
  pIC50: < 5.00
Second compound 10 µM
  pIC50: < 5.00
[1]
  viability, T/C: 108%
[2]
  viability, T/C: 90.1%
[3]
  viability, T/C: 95.7%
[4]
  viability, T/C: 97.8%
[5]
  viability, T/C: 85.2%
[6]
  viability, T/C: 80%
[7]
  viability, T/C: 88.1%
[8]
  viability, T/C: 91.6%
[9]
  viability, T/C: 95.7%
[10]
  viability, T/C: 83.5%
[11]
  viability, T/C: 89.8%
[12]
  viability, T/C: 76.9%
[13]
  viability, T/C: 100%
[14]
  viability, T/C: 91.5%
[15]
  viability, T/C: 88.1%
[16]
  viability, T/C: 89.2%
[17]
  viability, T/C: 90.5%
[18]
  viability, T/C: 76.7%
[19]
  viability, T/C: 88.9%
[20]
  viability, T/C: 97.4%
[21]
  viability, T/C: 94.4%
[22]
  viability, T/C: 93.3%
[23]
  viability, T/C: 88.1%
[24]
  viability, T/C: 72.6%
[25]
  viability, T/C: 89.1%
[26]
  viability, T/C: 90.9%
[27]
  viability, T/C: 96.7%
[28]
  viability, T/C: 90.3%
[29]
  viability, T/C: 91%
[30]
  viability, T/C: 76.5%
[31]
  viability, T/C: 87.2%
[32]
  viability, T/C: 77.4%
[33]
  viability, T/C: 81.2%
[34]
  viability, T/C: 80.8%
[35]
  viability, T/C: 77.5%
[36]
  viability, T/C: 66.4%
